In patent US7880007B2, “Bicyclic substituted phenyl piperidine modulators of muscarinic receptors” (Vertex Pharmaceuticals Incorporated, priority 2004, dated 2011):

How the values were obtained:
Format in all cases: cell-based
[1] = target: T1, M4 muscarinic receptor (Homo sapiens, UniProt P08173); test: Functional mobilization of intracellular calcium (FLIPR), M4-CHO cells; conditions: for Emax: 100% efficacy = maximum response obtained with the Carbachol control; for M4 Activity: M4-CHO cells, calcium mobilization (FLIPR)
T1 construct: expressed in transfected cells; host or cells: CHO (M4-CHO)
T1 sequence (P08173 1-479): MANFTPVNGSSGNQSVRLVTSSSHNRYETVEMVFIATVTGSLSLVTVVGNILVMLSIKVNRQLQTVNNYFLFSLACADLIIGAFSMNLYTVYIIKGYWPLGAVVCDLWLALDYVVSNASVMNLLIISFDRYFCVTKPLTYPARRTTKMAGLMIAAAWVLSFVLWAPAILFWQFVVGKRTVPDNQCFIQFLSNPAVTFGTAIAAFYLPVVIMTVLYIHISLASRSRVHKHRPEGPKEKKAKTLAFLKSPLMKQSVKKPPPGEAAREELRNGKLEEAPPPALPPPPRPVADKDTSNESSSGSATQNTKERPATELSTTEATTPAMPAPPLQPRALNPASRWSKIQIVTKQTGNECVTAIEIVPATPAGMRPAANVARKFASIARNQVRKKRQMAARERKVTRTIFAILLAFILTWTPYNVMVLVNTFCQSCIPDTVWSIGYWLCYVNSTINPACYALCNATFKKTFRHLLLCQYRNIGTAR
How it was run: (§1)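 FLIPR fluorescence (ex 488, em 540 nm) recorded 60 sec after compound addition to dye-loaded CHO cells. Agonist mode: compound alone. Antagonist mode: 15 min compound pre-incubation, then carbachol at EC80, or co-application. Efficacy expressed as % of maximal carbachol response.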

[2] = target: T2, M2 muscarinic receptor (Homo sapiens, UniProt P08172); test: Functional mobilization of intracellular calcium (FLIPR), M2-CHO cells; conditions: for Emax: 100% efficacy = maximum response obtained with the Carbachol control; for M2 Activity: M2-CHO cells, calcium mobilization (FLIPR)
T2 construct: expressed in transfected cells; host or cells: CHO (M2-CHO)
T2 sequence (P08172 1-466): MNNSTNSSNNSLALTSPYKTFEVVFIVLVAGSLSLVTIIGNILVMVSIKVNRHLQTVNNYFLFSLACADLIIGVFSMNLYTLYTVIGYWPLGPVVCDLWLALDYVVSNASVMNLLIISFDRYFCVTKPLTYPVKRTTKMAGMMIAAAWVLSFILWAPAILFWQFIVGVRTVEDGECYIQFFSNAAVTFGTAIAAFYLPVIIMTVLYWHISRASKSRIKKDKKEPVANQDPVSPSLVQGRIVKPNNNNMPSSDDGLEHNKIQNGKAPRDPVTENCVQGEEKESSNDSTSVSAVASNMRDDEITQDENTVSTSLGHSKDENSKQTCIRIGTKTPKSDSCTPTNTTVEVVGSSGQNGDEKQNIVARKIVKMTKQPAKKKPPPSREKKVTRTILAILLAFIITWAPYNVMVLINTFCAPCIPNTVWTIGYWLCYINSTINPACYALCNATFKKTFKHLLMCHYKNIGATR
How it was run: as §1

[3] = target: T3, M3 muscarinic receptor (Homo sapiens, UniProt P20309); test: Functional mobilization of intracellular calcium (FLIPR), M3-CHO cells; conditions: for Emax: 100% efficacy = maximum response obtained with the Carbachol control; for M3 Activity: M3-CHO cells, calcium mobilization (FLIPR)
T3 construct: expressed in transfected cells; host or cells: CHO (M3-CHO)
How it was run: as §1

[4] = target: T4, M1 muscarinic receptor (Homo sapiens, UniProt P11229); test: Functional mobilization of intracellular calcium (FLIPR), M1-CHO cells; conditions: for Emax: 100% efficacy = maximum response obtained with the Carbachol control; for M1 Activity: M1-CHO cells, calcium mobilization (FLIPR)
T4 construct: expressed in transfected cells; host or cells: CHO (M1-CHO)
T4 sequence (P11229 1-460): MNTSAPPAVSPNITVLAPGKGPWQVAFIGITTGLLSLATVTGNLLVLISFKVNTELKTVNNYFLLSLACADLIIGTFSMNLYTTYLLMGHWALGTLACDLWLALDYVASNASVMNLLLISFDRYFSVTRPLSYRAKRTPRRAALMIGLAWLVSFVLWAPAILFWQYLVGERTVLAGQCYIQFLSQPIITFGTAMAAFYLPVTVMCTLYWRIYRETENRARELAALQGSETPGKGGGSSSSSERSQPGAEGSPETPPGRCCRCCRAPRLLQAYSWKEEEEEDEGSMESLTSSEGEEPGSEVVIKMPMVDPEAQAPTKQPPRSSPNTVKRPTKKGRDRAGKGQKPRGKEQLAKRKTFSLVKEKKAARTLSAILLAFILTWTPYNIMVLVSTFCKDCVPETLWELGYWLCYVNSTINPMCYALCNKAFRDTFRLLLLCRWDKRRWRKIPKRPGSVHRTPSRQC
How it was run: as §1

T3 sequence (P20309 whole entry): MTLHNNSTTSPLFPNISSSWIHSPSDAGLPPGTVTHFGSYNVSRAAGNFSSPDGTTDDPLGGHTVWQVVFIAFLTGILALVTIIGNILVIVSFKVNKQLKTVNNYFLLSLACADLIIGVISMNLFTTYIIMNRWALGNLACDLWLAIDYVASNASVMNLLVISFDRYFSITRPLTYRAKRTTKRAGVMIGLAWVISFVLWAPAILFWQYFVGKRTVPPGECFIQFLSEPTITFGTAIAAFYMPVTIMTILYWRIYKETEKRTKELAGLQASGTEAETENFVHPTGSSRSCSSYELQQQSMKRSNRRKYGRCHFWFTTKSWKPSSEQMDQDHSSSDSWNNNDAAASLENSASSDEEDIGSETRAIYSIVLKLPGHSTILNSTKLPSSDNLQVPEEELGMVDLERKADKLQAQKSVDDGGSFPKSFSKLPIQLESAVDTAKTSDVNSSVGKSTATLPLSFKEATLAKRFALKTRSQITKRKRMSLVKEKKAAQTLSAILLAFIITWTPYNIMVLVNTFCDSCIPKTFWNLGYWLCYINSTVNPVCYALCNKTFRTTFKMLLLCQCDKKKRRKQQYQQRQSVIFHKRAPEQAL

Compound | Emax [1] [%] | Emax [2] [%] | Emax [3] [%] | Emax [4] [%] | M4 Activity [1] | M2 Activity [2] | M3 Activity [3] | M1 Activity [4]
COc1cc(F)c(F)cc1C1CCN([C@H]2C[C@H]3CC[C@H]2C3)CC1 [Compound 227] | 25 to 100 | < 25 | < 25 | 25 to 100 | ++ (activity was measured to be from 1.0 μM to 5.0 μM) | + (activity was measured to be greater than 5.0 μM) | + (activity was measured to be greater than 5.0 μM) | + (activity was measured to be greater than 5.0 μM)
COc1ccc(C(=O)c2ccsc2)cc1C1CCN([C@H]2C[C@H]3CC[C@H]2C3)CC1 [Compound 230] | 25 to 100 | < 25 | < 25 | < 25 | +++ (activity was measured to be less than 1.0 μM) | + (activity was measured to be greater than 5.0 μM) | + (activity was measured to be greater than 5.0 μM) | + (activity was measured to be greater than 5.0 μM)
COc1ccc(F)cc1C1(O)CCN(CC2CCOCC2)CC1 [Compound 231] | < 25 | < 25 | < 25 | < 25 | + (activity was measured to be greater than 5.0 μM) | + (activity was measured to be greater than 5.0 μM) | + (activity was measured to be greater than 5.0 μM) | + (activity was measured to be greater than 5.0 μM)
COc1ccccc1C1CCN(CC2CCCC2)CC1 [Compound 232] | 25 to 100 | < 25 | < 25 | 25 to 100 | ++ (activity was measured to be from 1.0 μM to 5.0 μM) | + (activity was measured to be greater than 5.0 μM) | + (activity was measured to be greater than 5.0 μM) | + (activity was measured to be greater than 5.0 μM)
COc1ccccc1C1CCN(CC2CCOCC2)CC1 [Compound 233] | 25 to 100 | < 25 | < 25 | 25 to 100 | ++ (activity was measured to be from 1.0 μM to 5.0 μM) | + (activity was measured to be greater than 5.0 μM) | + (activity was measured to be greater than 5.0 μM) | + (activity was measured to be greater than 5.0 μM)
COc1ccccc1C1CCN(C2CCC(c3ccccc3)CC2)CC1 (stereo not drawn) [Compound 234] | < 25 | < 25 | < 25 | < 25 | + (activity was measured to be greater than 5.0 μM) | + (activity was measured to be greater than 5.0 μM) | + (activity was measured to be greater than 5.0 μM) | + (activity was measured to be greater than 5.0 μM)
COc1ccccc1C1CCN(C2CCOCC2)CC1O (stereo not drawn) [Compound 235] | 25 to 100 | < 25 | < 25 | 25 to 100 | + (activity was measured to be greater than 5.0 μM) | + (activity was measured to be greater than 5.0 μM) | + (activity was measured to be greater than 5.0 μM) | + (activity was measured to be greater than 5.0 μM)

Second part, led by results:

Emax [1] [%] | Emax [2] [%] | Emax [3] [%] | Emax [4] [%] | Compound | M4 Activity [1] | M2 Activity [2] | M3 Activity [3] | M1 Activity [4]
25 to 100 | < 25 | < 25 | 25 to 100 | c1cc2c(c(C3CCN(C4C[C@@H]5CC[C@@H]4C5)CC3)c1)OCO2 (stereo partly drawn) [Compound 236] | +++ (activity was measured to be less than 1.0 μM) | + (activity was measured to be greater than 5.0 μM) | + (activity was measured to be greater than 5.0 μM) | ++ (activity was measured to be from 1.0 μM to 5.0 μM)
25 to 100 | < 25 | < 25 | < 25 | COc1ccc(-c2ccoc2)cc1C1CCN([C@@H]2C[C@H]3CC[C@H]2C3)CC1 [Compound 237] | ++ (activity was measured to be from 1.0 μM to 5.0 μM) | + (activity was measured to be greater than 5.0 μM) | + (activity was measured to be greater than 5.0 μM) | + (activity was measured to be greater than 5.0 μM)
25 to 100 | < 25 | < 25 | 25 to 100 | COC(=O)CC1CCCC(N2CCC(c3ccccc3OC)CC2)C1 (stereo not drawn) [Compound 238] | +++ (activity was measured to be less than 1.0 μM) | + (activity was measured to be greater than 5.0 μM) | + (activity was measured to be greater than 5.0 μM) | + (activity was measured to be greater than 5.0 μM)
25 to 100 | < 25 | < 25 | 25 to 100 | COc1ccc(F)cc1C1(F)CCN(CC2CCOCC2)CC1 [Compound 239] | ++ (activity was measured to be from 1.0 μM to 5.0 μM) | + (activity was measured to be greater than 5.0 μM) | + (activity was measured to be greater than 5.0 μM) | + (activity was measured to be greater than 5.0 μM)
25 to 100 | < 25 | < 25 | 25 to 100 | COc1ccc(-c2ccccc2C2CCN([C@H]3C[C@H]4CC[C@H]3C4)CC2)cc1 [Compound 241] | ++ (activity was measured to be from 1.0 μM to 5.0 μM) | + (activity was measured to be greater than 5.0 μM) | + (activity was measured to be greater than 5.0 μM) | + (activity was measured to be greater than 5.0 μM)
25 to 100 | 25 to 100 | < 25 | 25 to 100 | COc1ccc(F)cc1C1(F)CCN(C2CCC3CCC2C3)CC1 (stereo not drawn) [Compound 242] | +++ (activity was measured to be less than 1.0 μM) | + (activity was measured to be greater than 5.0 μM) | + (activity was measured to be greater than 5.0 μM) | ++ (activity was measured to be from 1.0 μM to 5.0 μM)
25 to 100 | < 25 | < 25 | 25 to 100 | CCOC(=O)N1CCC(CN2CCC(c3cc(-c4ccc(C(=O)NC)cc4)ccc3OC)CC2)CC1 [Compound 243] | +++ (activity was measured to be less than 1.0 μM) | + (activity was measured to be greater than 5.0 μM) | + (activity was measured to be greater than 5.0 μM) | +++ (activity was measured to be less than 1.0 μM)
25 to 100 | 25 to 100 | < 25 | 25 to 100 | COc1ccc(C)cc1C1CCN(C2C[C@H]3CC[C@H](C2)C3)CC1 (stereo partly drawn) [Compound 246] | +++ (activity was measured to be less than 1.0 μM) | + (activity was measured to be greater than 5.0 μM) | + (activity was measured to be greater than 5.0 μM) | ++ (activity was measured to be from 1.0 μM to 5.0 μM)
